Results on 9 compounds are retold here after PubChem BioAssay (NCI).

SMILES strings stand for the structures.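 Protocol summary: plate cells (96-well), add compound at 5 concentrations, incubate 48 h, interpolate endpoints linearly. GI50: concentration for 50% inhibition of growth. At the TGI there is no net growth.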 A value given as a limit tells only on which side of the number the result lay.

Among the test systems are NCI/ADR-RES ovarian; SK-MEL-5 melanoma; HCT-116 colon; SW-620 colon; HT29 colon; MCF7 breast; 786-0 renal; MDA-MB-435; NCI-H522 lung; RXF 393 renal.
What all share (test): growth of human tumour cells (NCI), 48 h

Take `COC(=O)c1cc2c(cc1Cl)SC(N(N(C)C)S(=O)(=O)c1ccc(Br)s1)=NS2(=O)=O`: the GI50 was 23.7 µM with NCI/ADR-RES ovarian; 15.8 µM in the assay on SK-MEL-5 melanoma; 26.6 µM in the assay on HCT-116 colon; 18.6 µM in the assay with SW-620 colon; 21.3 µM with HT29 colon; 22.4 µM with MCF7 breast. The GI50 in the assay on 786-0 renal was 35.1 µM; in the assay with MDA-MB-435 it was 23.1 µM; with NCI-H522 lung, 17.9 µM. For the same compound, the TGI in the assay with NCI/ADR-RES ovarian turned out to be 59.9 µM; with SK-MEL-5 melanoma it was 29.4 µM; in the assay with HCT-116 colon, 73.6 µM; in the assay on SW-620 colon, 36.3 µM; with HT29 colon, 56.9 µM; in the assay with MCF7 breast it was 44.7 µM. For the same compound, the TGI with 786-0 renal was greater than 100 µM; with MDA-MB-435, 49.7 µM; with NCI-H522 lung, 42.1 µM.

`CC(=O)Nc1ccc(C(=O)NN2C(=O)C(Cl)C2c2ccc(Cl)cc2)cc1` (stereo unspecified): the TGI with NCI/ADR-RES ovarian, in the assay with SK-MEL-5 melanoma, in the assay on HCT-116 colon, in the assay with SW-620 colon, in the assay with HT29 colon and in the assay with MCF7 breast was greater than 100 µM each time. Moreover, the TGI in the assay with 786-0 renal was 40.3 µM; in the assay with MDA-MB-435 it was greater than 100 µM; in the assay on NCI-H522 lung, greater than 100 µM.

As for `C=C1C(=O)C23CC1C[C@H](OC(C)=O)[C@H]2C1(C)C(OC(C)=O)C[C@H](O)C(C)(C)[C@H]1C(=O)[C@@H]3OC(C)=O` (stereo partly specified), the TGI in the assay with RXF 393 renal worked out at 9.75 µM; in the assay on NCI/ADR-RES ovarian, 35.6 µM; with SK-MEL-5 melanoma, 27.4 µM; with HCT-116 colon, 6.16 µM; in the assay on SW-620 colon, 3.6 µM; in the assay on HT29 colon, 17 µM. Also, the TGI in the assay with MCF7 breast turned out to be 14 µM; in the assay with 786-0 renal, 9.64 µM; with MDA-MB-435, 11.4 µM; with NCI-H522 lung it was 3.48 µM.

With `CC(C)=CCCC(C)c1ccc(C)c2c1OCN(CC1CCNCC1)C2` (stereo unspecified), the GI50 with RXF 393 renal is 9.2 µM; in the assay with NCI/ADR-RES ovarian, 16.8 µM; with SK-MEL-5 melanoma, 4.97 µM; in the assay on HCT-116 colon it was 7.17 µM; in the assay on SW-620 colon it was 9.87 µM; with HT29 colon, 3 µM. The GI50 with MCF7 breast is 6.15 µM; in the assay on 786-0 renal, 12.2 µM; in the assay on MDA-MB-435, 6.48 µM; with NCI-H522 lung, 13.5 µM. Further, the TGI in the assay on RXF 393 renal is 21.7 µM; in the assay on NCI/ADR-RES ovarian it was 34.8 µM; with SK-MEL-5 melanoma, 18.3 µM; in the assay on HCT-116 colon, 21.7 µM; with SW-620 colon it was 23.1 µM; in the assay with HT29 colon it was 8.38 µM. Besides, the TGI is 18.7 µM in the assay with MCF7 breast, 26.3 µM in the assay with 786-0 renal, 20.9 µM with MDA-MB-435 and 28.6 µM in the assay on NCI-H522 lung.

As for `O=c1c2cc(Cl)ccc2oc2ccc(OCCCCCN3CCCCC3)cc12`, the GI50 in the assay on RXF 393 renal was 1.86 µM; in the assay on NCI/ADR-RES ovarian, 5.47 µM; in the assay with SK-MEL-5 melanoma it was 0.892 µM; with HCT-116 colon, 1.75 µM; in the assay on SW-620 colon, 1.55 µM; with HT29 colon, 1.27 µM. Moreover, the GI50 with MCF7 breast is 5.24 µM; in the assay on 786-0 renal it was 5.91 µM; in the assay with MDA-MB-435, 1.02 µM; in the assay with NCI-H522 lung, 3.48 µM. The TGI in the assay with RXF 393 renal was 7.2 µM; with NCI/ADR-RES ovarian it was 24.8 µM; with SK-MEL-5 melanoma it was 1.91 µM; with HCT-116 colon, 6.8 µM; with SW-620 colon, 5.09 µM; in the assay with HT29 colon, 3.31 µM. Further, the TGI with MCF7 breast amounted to 14.6 µM; in the assay on 786-0 renal, 12.5 µM; in the assay on MDA-MB-435, 2.37 µM; in the assay on NCI-H522 lung, 10.4 µM.

Consider `Cc1cc(C)c([O-])c(CN(C)CCN(C)Cc2cc(C)cc(C)c2[O-])c1.O=C([O-])c1cccc(C(=O)[O-])n1.[Ti+4]`, for which the GI50 is 1.42 µM with RXF 393 renal; 2.71 µM in the assay with NCI/ADR-RES ovarian; 2.9 µM with SK-MEL-5 melanoma; 0.383 µM with HCT-116 colon; 2.89 µM in the assay on SW-620 colon; 3.17 µM in the assay on MCF7 breast. In addition, the GI50 in the assay with 786-0 renal was 1.83 µM; with MDA-MB-435 it was 2.89 µM; in the assay on NCI-H522 lung it was 2.08 µM. Also, the TGI in the assay on RXF 393 renal is 3.96 µM; in the assay on NCI/ADR-RES ovarian, greater than 100 µM; in the assay with SK-MEL-5 melanoma it was greater than 100 µM; in the assay on HCT-116 colon, 22.3 µM; with SW-620 colon, greater than 100 µM; in the assay with MCF7 breast, greater than 100 µM. Also, the results for the TGI with 786-0 renal, in the assay on MDA-MB-435 and with NCI-H522 lung were greater than 100 µM, greater than 100 µM and 5.47 µM, respectively.

With `CCN(CC)CC(O)CNc1ccc(NCC2CO2)c2c1C(=O)c1ccccc1C2=O` (stereo unspecified), the TGI with RXF 393 renal was 0.953 µM; in the assay on NCI/ADR-RES ovarian, 0.815 µM; in the assay with SK-MEL-5 melanoma it was 1.8 µM; in the assay with HCT-116 colon, 1.11 µM; with SW-620 colon it was 0.797 µM; with HT29 colon, 6.87 µM. The TGI with MCF7 breast was determined as 0.169 µM; with 786-0 renal, 1.15 µM; in the assay on MDA-MB-435, 0.394 µM; with NCI-H522 lung, 2.41 µM. Moreover, the GI50 is 0.398 µM in the assay on SK-MEL-5 melanoma; 0.0866 µM with HCT-116 colon; 0.0713 µM in the assay on SW-620 colon; 0.275 µM with HT29 colon; 0.0284 µM in the assay on MCF7 breast; 0.374 µM in the assay on 786-0 renal. Also, the GI50 in the assay with MDA-MB-435 was 0.133 µM; with NCI-H522 lung it was 0.958 µM.

Regarding `CSc1nc(C)c2c(n1)SCC2`, the TGI in the assay with RXF 393 renal, in the assay on NCI/ADR-RES ovarian, with SK-MEL-5 melanoma, with HCT-116 colon, in the assay with SW-620 colon and with HT29 colon was greater than 10 µM in each case. Further, the TGI in the assay with MCF7 breast, with 786-0 renal and in the assay with MDA-MB-435 was greater than 10 µM throughout.

As to `COc1ccc([N+](=O)[O-])c2c(NCCCN(C)C)c3ccccc3nc12`, the TGI in the assay with RXF 393 renal came to 0.253 µM; with NCI/ADR-RES ovarian it was 23.5 µM; with SK-MEL-5 melanoma, 0.243 µM; in the assay on HCT-116 colon it was 0.978 µM; in the assay on HT29 colon, 1.22 µM; in the assay with MCF7 breast it was 0.203 µM. Moreover, the TGI in the assay with 786-0 renal is 0.504 µM; in the assay with MDA-MB-435 it was 1.17 µM; with NCI-H522 lung, 0.145 µM.
